In patent publication US20240016941A1, “COMBINATION THERAPY” (priority 2020, published 2024):
“Also recorded” adds a separate entry of the source.

How the values were obtained:
[1] = system: cells infected by tobramycin-resistance PA bacteria; conditions: combination with CFTR modulators, tobramycin-resistant PA; cited from earlier work
[2] = system: PAO1 WT secretome (contains LasB); conditions: WT-SEC treated cells; cited from earlier work
[3] = target: T1, purified LasB protein from P. aeruginosa (Pseudomonas aeruginosa, UniProt P14756); test: Fluorometric assay to determine Ki (purified LasB, Abz-Ala-Gly-Leu-Ala-p-Nitro-Benzyl-Amide substrate); type: biochemical
T1 construct: purchased Merck or Charles River Laboratories
How it was run: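 Purified P. aeruginosa LasB (10-140 ng/ml) with 250 μM Abz-Ala-Gly-Leu-Ala-p-nitrobenzylamide in Tris pH 7.4, 2.5 mM CaCl2, 0.01% Triton X100; fluorescence (340/415 nm) followed 30 min at 37 °C. IC50 from 2-fold series (0.0016-200 μM); Ki = IC50/(1+[S]/Km), Km 214 μM.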

purified LasB = purified LasB (Pseudomonas aeruginosa, UniProt P14756); test: Inhibition of LasB-mediated hydrolysis of pro-IL-1β to IL-1β (FRET peptide); type: biochemical
Protocol: Hydrolysis of this FRET peptide was continuously monitored using a Victor multimode plate reader (Perkin Elmer) with excitation 355 nm and emission at 450 nm in the presence of varying concentrations of compounds of the invention. Inhibitory constants (Ki) were determined for certain compounds of the invention (at least 2 independent replicates) using a competitive inhibitor model.

[4] = target: T2, LasB elastase activity of dialysed supernatant from P. aeruginosa PAO1 (Pseudomonas aeruginosa, UniProt P14756); test: Elastin Congo-Red assay to determine % inhibition (dialysed PAO1 supernatant); type: biochemical; conditions: read-out: Elastin hydrolysis % inhibition @ 25 μM inhibitor concentration
T2 construct: Culture supernatants are recovered by centrifugation and filtrated through a 0.22 μM filter; endogenous in cells; host or cells: P. aeruginosa strain PAO1, culture supernatant, filtered and dialysed
How it was run: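 End-point assay: dialysed PAO1 culture supernatant (in 50 mM Tris-HCl pH 7.4, 2.5 mM CaCl2) mixed with Elastin Congo-Red plus 0.01% Triton X100 and compound (routinely 50 to 1.56 μM), incubated overnight at 37 °C with shaking. Released dye read at OD495nm; % inhibition relative to DMSO and enzyme-free controls.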

PA (PAO1) = test: Mouse model of Pseudomonas aeruginosa lung infection; type: in vivo; conditions: mice infected with wild-type PAO1, i.v. 1 h and 2 h post infection, 10 and 30 mg/kg, 24 hours post infection
Protocol: Mice were dosed by intranasal inoculation of PA (PAO1), then sacrificed after 24 hours. The extent of infection in the lung was quantified by bacterial load (CFU determination, colony forming units) and the levels of proinflammatory IL-1β. Statistical analysis on both readouts were performed by ANOVA with a Dunnett post-test.
Compounds were administered intravenously in a two-dose regimen (1 hour and 2 hours post infection) at two different doses (10 and 30 mg/kg).

F508del-CFTR cells = test: Forskolin-activated CFTR response in CF-mutant human bronchial epithelial cells (membrane potential dye); type: cell-based
Protocol: This example describes experiments showing that LasB impacted CFTR function in CF mutant cells can be mitigated by treatment with CFTR modulators and LasB inhibitors.
Wild Type human bronchial epithelial (HBE) cells and CF-mutant human bronchial epithelial cells (F508del-CFTR) are grown at 37° C. for 5 days and loaded onto 96-well plate cultures. The cells are loaded with blue membrane potential dye dissolved in chloride-free buffer. The plate is read in a fluorescence plate reader at 37° C. (excitation: 530 nm; emission; […]). CFTR is stimulated with forskolin.
A control signal defined as 100% transmission is obtained from WT human bronchial epithelial cells alone. A minor suppression of forskolin-activated CFTR response is expected for such WT cells in the presence of LasB.
Moderate suppression in the forskolin-activated CFTR response will be observed for CF-mutant cells. This moderate suppression will be reduced by addition of a CFTR modulator such as VX-809 (lumacaftor).
Substantial suppression in the forskolin-activated CFTR response is expected for CF-mutant cells in the presence of LasB, even following the addition of a CFTR modulator, due to the deleterious effect of LasB on expressed CFTR protein.

[5] = target: T3, LasB from Pseudomonas aeruginosa (Pseudomonas aeruginosa, UniProt P14756); test: Inhibition of LasB-mediated reduction of CFTR levels on airway cells (CFTR IP / Western blot); type: cell-based; conditions: NHBE airway cells, 100 nM LasB, 1, 10 or 100 μM compound, 24 hrs
T3 construct: host or cells: Exogenous enzyme applied apically to NHBE cells
Protocol: These experiments measured the amount of CFTR protein expressed in airway cells under normal conditions and also exposed to 100 nM LasB. […] The effect of adding increasing concentrations of a LasB inhibitor (here the compound of Example 23) on this reduction of CFTR by LasB was then examined.
Normal Human Bronchial Epithelial (NHBE) airway cells were expanded in Pneumacult™ EX medium on plastic PureCol™ coated dishes. Cells were plated on Millicell inserts (200K/insert) and differentiated at air-liquid interface for 26 days in modified Lonza Medium. Prior to treatment, cells were washed in 1×DPBS buffer.
Treatments were 100 nM LasB from Pseudomonas aeruginosa and 0, 1, 10, or 100 μM Example 23 for 24 hrs. A stock solution of LasB (200 nM) was prepared in buffer containing 50 mM Tris HCL pH 7.4, 2.5 mM CaCl2 and 0.01% TritonX-100. A 20 mM stock solution of Example 23 was made in DMSO and sonicated for 10 minutes. The DMSO stock was diluted, 10 μL into 990 μL buffer, to give a 200 μM solution. […]
The cells were lysed with 1% NP-40 lysis buffer containing protease inhibitors (1 μg/ml leupeptin, 2 μg/ml aprotinin, […] pefabloc, 121 μg/ml benzamidine, 3.5 μg/ml E64) and stored at −80° C. until IP/WB analysis. […] Protein bands were visualized using a Sapphire Biomolecular Imager (Azure Biosystems) and quantitated with AzureSpot Analysis Software.

Chain of purified LasB (P14756 198-498): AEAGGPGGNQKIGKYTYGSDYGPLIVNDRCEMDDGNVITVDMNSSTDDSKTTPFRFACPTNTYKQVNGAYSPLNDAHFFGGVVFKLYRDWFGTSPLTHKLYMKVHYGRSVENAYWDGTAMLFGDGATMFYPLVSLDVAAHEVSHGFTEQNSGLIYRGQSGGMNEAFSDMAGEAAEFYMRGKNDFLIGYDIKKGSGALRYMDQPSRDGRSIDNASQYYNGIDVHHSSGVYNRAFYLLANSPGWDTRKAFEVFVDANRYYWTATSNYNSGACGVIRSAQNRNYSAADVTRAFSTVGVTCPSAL
T1 sequence (P14756 198-498): as above
T2 sequence (P14756 198-498): as above
T3 sequence (P14756 198-498): as above

Row | Compound | Ki [3] [µM] | Ki (purified LasB) [µM] | inhibition at 25 µM [4] [%] | extent of infection in the lung (CFU levels) (PA (PAO1)) | production and activation of IL-1β in the lung (PA (PAO1)) | further results
1 | NC[C@H]1O[C@H](O[C@H]2[C@H](O)[C@@H](O[C@H]3O[C@H](CO)[C@@H](O)[C@H](N)[C@H]3O)[C@H](N)C[C@@H]2N)[C@H](N)C[C@@H]1O [tobramycin] | – | – | – | – | – | restoration of CFTR function [1]: incapable of restoring CFTR function
2 | CC(C)C[C@H](NP(=O)(O)O[C@@H]1O[C@@H](C)[C@H](O)[C@@H](O)[C@H]1O)C(=O)N[C@@H](Cc1c[nH]c2ccccc12)C(=O)O [phosphoramidon] | – | – | – | – | – | downregulation of trappin-2 and IL-6 by WT secretome [2]: prevented
3 | COc1cc2sc(CNC(=O)C3(CC(=O)[O-])Cc4cc(F)c(F)cc4C3)nc2cc1OCC1CC[N+](C)(C)CC1 [Example 44, 2-[2-[[5-[(1,1-dimethylpiperidin-1-ium-4-yl)methoxy]-6-methoxy-1,3-benzothiazol-2-yl]methylcarbamoyl]-5,6-difluoro-indan-2-yl]acetate] | < 0.05 | 0.3 | > 80 | – | – | –
4 | COc1cc2sc(CNC(=O)C3(CC(=O)[O-])Cc4ccccc4C3)nc2cc1OCCC[N+](C)(C)C [Example 53, 2-[2-[[6-methoxy-5-[3-(trimethylammonio)propoxy]-1,3-benzothiazol-2-yl]methylcarbamoyl]indan-2-yl]acetate] | < 0.05 | 0.7 | – | reduced the extent of infection in the lung to the level of the LasB deleted mutant | inhibited the production and activation of IL-1β in mice infected by wild-type PA (PA01) at a similar level than the lasB deleted mutant | Maximum forskolin-activated response of CFTR channels compared to WT human bronchial epithelial cells (F508del-CFTR cells; F508del-CFTR cells + 10 μM VX-809 + 0.01 μM LasB + 10 μM Example 53): forskolin-activated CFTR response being substantially restored; also recorded: Minor suppression of CFTR
5 | Cc1ccc(NC(=O)C2(c3ccc4c(c3)OC(F)(F)O4)CC2)nc1-c1cccc(C(=O)O)c1 [VX-809, lumacaftor, reference compound] | – | – | – | – | – | Maximum forskolin-activated response of CFTR channels compared to WT human bronchial epithelial cells (F508del-CFTR cells; F508del-CFTR cells + 10 μM VX-809): Minor suppression of CFTR; Maximum forskolin-activated response of CFTR channels compared to WT human bronchial epithelial cells (F508del-CFTR cells; F508del-CFTR cells + 10 μM VX-809 + 0.01 μM LasB): substantial suppression of CFTR
6 | COc1cc2sc(CNC(=O)C3(CC(=O)[O-])Cc4cc(F)c(F)cc4C3)nc2cc1OCCC[N+](C)(CCO)CCO [Example 23, 2-[2-[[5-[3-[bis(2-hydroxyethyl)-methyl-ammonio]propoxy]-6-methoxy-1,3-benzothiazol-2-yl]methylcarbamoyl]-5,6-difluoro-indan-2-yl]acetate] | < 0.05 | 0.5 | > 80 | reduced the extent of infection in the lung to the level of the LasB deleted mutant | inhibited the production and activation of IL-1β in mice infected by wild-type PA (PA01) at a similar level than the lasB deleted mutant | CFTR protein level in LasB-exposed cells [5]: ameliorated by increasing concentrations of Example 23; also recorded: counteract the reduction in CFTR expression caused by LasB in a dose-related manner
